# Reference: PubChem BioAssay (NCI)
#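 Exposure lasted 48 hours, with cells grown in 96-well plates and compounds tested at five concentrations. The concentration for 50% growth inhibition is given as GI50. TGI is the concentration that stops growth completely.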
# Legend:
# Assay in all cases: growth of human tumour cells (NCI), 48 h
# [1] = test system: EKVX NSCLC
# [2] = test system: IGROV1 ovarian
# [3] = test system: KM12 colon
# [4] = test system: M14 melanoma
# [5] = test system: HCC-2998 colon
# [6] = test system: SK-MEL-28 melanoma
# [7] = test system: OVCAR-4 ovarian
# [8] = test system: PC-3 prostate
# [9] = test system: OVCAR-5 ovarian
# [10] = test system: RPMI-8226 leukemia
# [11] = test system: K-562 leukemia
# [12] = test system: MDA-MB-231 breast
# [13] = test system: ACHN renal
# [14] = test system: HL-60(TB) leukemia
# [15] = test system: SR leukemia
# [16] = test system: SK-MEL-2 melanoma
# [17] = test system: A549 NSCLC
# [18] = test system: HCT-116 colon
# [19] = test system: CCRF-CEM leukemia
# [20] = test system: SK-MEL-5 melanoma
# [21] = test system: TK-10 renal
# [22] = test system: A498 renal
# [23] = test system: MDA-MB-468 breast
# [24] = test system: SF-268 CNS
# [25] = test system: SNB-75 CNS
# [26] = test system: NCI-H460 lung
# [27] = test system: MDA-MB-435
# [28] = test system: UACC-257 melanoma
# [29] = test system: SF-539 CNS
# [30] = test system: OVCAR-3 ovarian
# [31] = test system: T-47D breast
# [32] = test system: SNB-19 CNS
# [33] = test system: SW-620 colon
# [34] = test system: NCI-H23 lung
# [35] = test system: UACC-62 melanoma
# [36] = test system: COLO 205 colon
# [37] = test system: UO-31 renal
# [38] = test system: SF-295 CNS
# [39] = test system: BT-549 breast
# [40] = test system: RXF 393 renal
# [41] = test system: HOP-62 NSCLC
# [42] = test system: HCT-15 colon
# [43] = test system: NCI-H226 lung
# [44] = test system: NCI-H522 lung
# [45] = test system: HOP-92 NSCLC
# [46] = test system: DU-145 prostate
# [47] = test system: HS 578T breast
# [48] = test system: OVCAR-8 ovarian
# [49] = test system: CAKI-1 renal
# [50] = test system: MCF7 breast
# [51] = test system: SK-OV-3 ovarian
# [52] = test system: MOLT-4 leukemia
# [53] = test system: 786-0 renal
# [54] = test system: LOX IMVI melanoma
# [55] = test system: MALME-3M melanoma
# [56] = test system: HT29 colon
# [57] = test system: SN12C renal
# [58] = test system: U251 CNS
# [59] = test system: NCI/ADR-RES ovarian
structure (smiles),measurement,setting,value
COc1ccccc1[C@H]1C(C(=O)c2ccc(O)cc2)C2(N[C@@H]1c1ccccc1)C(=O)Nc1ccc(Br)cc12 (stereo partly specified),GI50,[1],7.61 µM
same,TGI,[1],16.5 µM
same,GI50,[2],4.56 µM
same,TGI,[2],11.8 µM
same,GI50,[3],7.73 µM
same,TGI,[3],16.9 µM
same,GI50,[4],7.35 µM
same,TGI,[4],15.4 µM
same,GI50,[5],6.55 µM
same,TGI,[5],14 µM
same,GI50,[6],8.02 µM
same,TGI,[6],15.4 µM
same,GI50,[7],7.19 µM
same,TGI,[7],16.4 µM
same,GI50,[8],4.08 µM
same,TGI,[8],13.9 µM
same,GI50,[9],7.47 µM
same,TGI,[9],14.7 µM
same,GI50,[10],8.42 µM
same,TGI,[10],47.7 µM
same,GI50,[11],10.7 µM
same,TGI,[11],43.1 µM
same,GI50,[12],6.39 µM
same,TGI,[12],13.3 µM
same,GI50,[13],7.72 µM
same,TGI,[13],15 µM
same,GI50,[14],12.2 µM
same,TGI,[14],39.3 µM
same,GI50,[15],5.57 µM
same,TGI,[15],18.4 µM
same,GI50,[16],8.01 µM
same,TGI,[16],15.8 µM
same,GI50,[17],6.04 µM
same,TGI,[17],13.6 µM
same,GI50,[18],7.03 µM
same,TGI,[18],15.4 µM
same,GI50,[19],7.57 µM
same,TGI,[19],24.4 µM
same,GI50,[20],9.09 µM
same,TGI,[20],17.1 µM
same,GI50,[21],7.34 µM
same,TGI,[21],15.2 µM
same,GI50,[22],7.26 µM
same,TGI,[22],15 µM
same,GI50,[23],2.22 µM
same,TGI,[23],8.66 µM
same,GI50,[24],7.05 µM
same,TGI,[24],17.1 µM
same,GI50,[25],5.98 µM
same,TGI,[25],13.6 µM
same,GI50,[26],6.91 µM
same,TGI,[26],15 µM
same,GI50,[27],7.39 µM
same,TGI,[27],15.1 µM
same,GI50,[28],7.81 µM
same,TGI,[28],15.5 µM
same,GI50,[29],8.07 µM
same,TGI,[29],15.4 µM
same,GI50,[30],5.35 µM
same,TGI,[30],12.4 µM
same,GI50,[31],6.67 µM
same,TGI,[31],16.6 µM
same,GI50,[32],7.62 µM
same,TGI,[32],14.8 µM
same,GI50,[33],8.34 µM
same,TGI,[33],16.8 µM
same,GI50,[34],8.25 µM
same,TGI,[34],16.7 µM
same,GI50,[35],7.15 µM
same,TGI,[35],14.2 µM
same,GI50,[36],8.67 µM
same,TGI,[36],18.2 µM
same,GI50,[37],6.07 µM
same,TGI,[37],12.8 µM
same,GI50,[38],6.63 µM
same,TGI,[38],14.1 µM
same,GI50,[39],6.03 µM
same,TGI,[39],13.4 µM
same,GI50,[40],5.63 µM
same,TGI,[40],13.8 µM
same,GI50,[41],8.27 µM
same,TGI,[41],16.7 µM
same,GI50,[42],8.02 µM
same,TGI,[42],18.1 µM
same,GI50,[43],5.1 µM
same,TGI,[43],14.9 µM
same,GI50,[44],2.77 µM
same,TGI,[44],10.4 µM
same,GI50,[45],6.52 µM
same,TGI,[45],14.7 µM
same,GI50,[46],9.39 µM
same,TGI,[46],18 µM
same,GI50,[47],8.2 µM
same,TGI,[47],23.2 µM
same,GI50,[48],8.3 µM
same,TGI,[48],16.7 µM
same,GI50,[49],2.94 µM
same,TGI,[49],10.7 µM
same,GI50,[50],6.66 µM
same,TGI,[50],19.1 µM
same,GI50,[51],8.08 µM
same,TGI,[51],16.3 µM
same,GI50,[52],4.42 µM
same,TGI,[52],23.2 µM
same,GI50,[53],8.4 µM
same,TGI,[53],16.2 µM
same,GI50,[54],7.63 µM
same,TGI,[54],18.8 µM
same,GI50,[55],8.42 µM
same,TGI,[55],16.1 µM
same,GI50,[56],7.91 µM
same,TGI,[56],17.6 µM
same,GI50,[57],2.65 µM
same,TGI,[57],9.49 µM
same,GI50,[58],6.62 µM
same,TGI,[58],13.9 µM
COc1ccc2ccccc2c1/C=C1\SC(=Nc2ccc(O)cc2)NC1=O,GI50,[1],1.11 µM
same,TGI,[1],17.3 µM
same,GI50,[2],1.85 µM
same,TGI,[2],14.4 µM
same,GI50,[3],1.19 µM
same,TGI,[3],14.8 µM
same,GI50,[4],0.492 µM
same,TGI,[4],10.8 µM
same,GI50,[5],1.73 µM
same,TGI,[5],12.6 µM
same,GI50,[6],0.966 µM
same,TGI,[6],19.9 µM
same,GI50,[7],3.81 µM
same,TGI,[7],21.1 µM
same,GI50,[8],0.798 µM
same,TGI,[8],29.1 µM
same,GI50,[9],3.56 µM
same,TGI,[9],16.2 µM
same,GI50,[10],2.59 µM
same,TGI,[10],9.45 µM
same,GI50,[11],0.413 µM
same,TGI,[11],11.9 µM
same,GI50,[13],1.81 µM
same,TGI,[13],16.3 µM
same,GI50,[14],0.431 µM
same,TGI,[14],2.65 µM
same,GI50,[59],0.95 µM
same,TGI,[59],3.8 µM
same,GI50,[15],0.321 µM
same,TGI,[15],12.5 µM
same,GI50,[17],2.01 µM
same,TGI,[17],16.9 µM
same,GI50,[18],0.432 µM
same,TGI,[18],11.6 µM
same,GI50,[19],0.651 µM
same,TGI,[19],30.1 µM
same,GI50,[20],0.54 µM
same,TGI,[20],2.28 µM
same,GI50,[21],4.14 µM
same,TGI,[21],21.6 µM
same,GI50,[22],3.7 µM
same,TGI,[22],16.4 µM
same,GI50,[23],0.37 µM
same,TGI,[23],1.82 µM
same,GI50,[24],1.59 µM
same,TGI,[24],18.7 µM
same,GI50,[26],0.833 µM
same,TGI,[26],11.3 µM
same,GI50,[27],0.235 µM
same,TGI,[27],0.591 µM
same,GI50,[28],0.683 µM
same,TGI,[28],19.6 µM
same,GI50,[29],0.517 µM
same,TGI,[29],3.4 µM
same,GI50,[30],0.425 µM
same,TGI,[30],11.7 µM
same,GI50,[31],0.765 µM
same,TGI,[31],31.7 µM
same,GI50,[32],1.8 µM
same,TGI,[32],14 µM
same,GI50,[33],0.437 µM
same,TGI,[33],15.8 µM
same,GI50,[34],1.11 µM
same,TGI,[34],11.3 µM
same,GI50,[35],0.346 µM
same,TGI,[35],12.5 µM
same,GI50,[36],1.88 µM
same,TGI,[36],5.04 µM
same,GI50,[38],0.843 µM
same,TGI,[38],10.9 µM
same,GI50,[39],1.04 µM
same,TGI,[39],4.54 µM
same,GI50,[40],0.272 µM
same,TGI,[40],1.71 µM
same,GI50,[41],2.58 µM
same,TGI,[41],13.6 µM
same,GI50,[42],0.442 µM
same,TGI,[42],11.1 µM
same,GI50,[43],5.56 µM
same,TGI,[43],34.7 µM
same,GI50,[44],0.422 µM
same,TGI,[44],2.22 µM
same,GI50,[45],2.05 µM
same,TGI,[45],20.3 µM
same,GI50,[46],2.17 µM
same,TGI,[46],19.6 µM
same,GI50,[47],0.4 µM
same,TGI,[47],11.9 µM
same,GI50,[48],1.58 µM
same,TGI,[48],6.51 µM
same,GI50,[49],11.1 µM
same,TGI,[49],46.5 µM
same,GI50,[50],0.428 µM
same,TGI,[50],12.5 µM
same,GI50,[51],1.66 µM
same,TGI,[51],18 µM
same,GI50,[52],1.51 µM
same,TGI,[52],11.3 µM
same,GI50,[53],3.19 µM
same,TGI,[53],21 µM
same,GI50,[54],0.666 µM
same,TGI,[54],12.1 µM
same,GI50,[55],1.02 µM
same,TGI,[55],14.4 µM
same,GI50,[56],2.82 µM
same,TGI,[56],7.35 µM
same,GI50,[57],2.48 µM
same,TGI,[57],13.3 µM
same,GI50,[58],0.425 µM
same,TGI,[58],11.3 µM
